This is an account of results in patent US20070049625A1, “EP2 receptor agonists for treating glaucoma” (Allergan, Inc., priority 2005, published 2007).

What all share (type): in vivo
Series [1] has as its system Cynomolgus monkeys (Macaca fascicularis). The series can be described thus: Intraocular pressure in laser-induced ocular hypertensive monkeys. The following applies: single topical dose, laser-treated ocular hypertensive eye, IOP at 2, 4, 6 and 24 hours. The method, then:
Cynomolgus monkeys (Macaca fascicularis) were used for the intraocular pressure studies. Each animal was unilaterally laser-treated by circumferential laser photocoagulation to induce ocular hypertension in one eye. Conscious female animals were trained sit in custom design chairs and to accept applanation pneumatonometry. The drug was administered topically to one eye using a dropper bottle to deliver approximately a 35 μl volume, the other eye received vehicle (1% polysorbate 80 in 5 mM Tris HCl) as a control. Proparacaine at 0.25% was used for corneal anesthesia during tonometry. Intraocular pressure was determined just before drug administration and at 2, 4, 6, and 24 hours.

Series [2] has as its system Beagle dogs. The series can be described thus: Ocular surface hyperemia grading in dogs. The following applies: topical to one eye, dosing over a 5 day period; 5 point scale 0=none, 0.5=trace, 1=mild, 2=moderate, 3=severe. The procedure:
(§1) Measurement of intraocular pressure studies in dogs involved applanation pneumatonometry performed in Beagle dogs of both sexes. The animals remained conscious throughout the study and were gently restrained by hand. The drug was administered topically to one eye using a dropper bottle to deliver approximately a 35 μl volume, the other eye received vehicle (1% polysorbate 80 in 5 mM Tris HCI) as a control. Proparacaine at 0.25% was used for corneal anesthesia during tonometry. Intraocular pressure was determined just before drug administration and at 2, 4, 6 hours thereafter on each day of the 5 day study. Measurement of ocular surface hyperemia was performed immediately before each of the intraocular pressure readings. Ocular surface hyperemia grading was semi-quantitative and assessed according to a 5 point scoring scale used for clinical evaluations: 0=none; 0.5=trace; 1=mild; 2=moderate; and 3=severe.

For series [3], the system named is Beagle dogs. The series can be described thus: Intraocular pressure in conscious dogs by applanation pneumatonometry. The following applies: topical to one eye, single daily dose over a 5 day period; IOP before and 2, 4, 6 hours after dosing; vehicle in other eye. The procedure: as §1

For `CC(C)OC(=O)COc1cccc(CN(Cc2ccc(C(C)(C)C)cc2)S(=O)(=O)c2cccnc2)c1` [(3-{[(4-tert-butyl-benzyl)-(pyridine-3-sulfonyl)-amino]-methyl}-phenoxy)-acetic acid; isopropyl ester], the “effect on the IOP of monkeys” value in series [1] (0.1% w/v solution) is recorded as “lowers the elevated IOP over 24 hours almost to the level of the control normotensive eye”. Also, the “ocular surface hyperemia of dogs” value in the series with Beagle dogs [2] was “minimal ocular surface hyperemia”. Also, the “effect on the IOP of dogs” value in the series with Beagle dogs [3] is reported as “effective for reducing IOP of the dogs”.
On to `CC(C)(C)c1ccc(CN(Cc2cccc(OCC(=O)O)c2)S(=O)(=O)c2cccnc2)cc1` [(3-{[(4-tert-butyl-benzyl)-(pyridine-3-sulfonyl)-amino]-methyl}-phenoxy)-acetic acid], for which the “effect on the IOP of monkeys” value is reported as “lowers the elevated IOP over 24 hours” in series [1] (0.01% w/v solution); “lowers the elevated IOP over 24 hours, almost to the level of the control normotensive eye” in series [1] (0.03% w/v solution); “lowers the elevated IOP over 24 hours, almost to the level of the control normotensive eye” in series [1] (0.1% w/v solution). The “ocular surface hyperemia of dogs” value in the series with Beagle dogs [2] is given as “mild ocular surface hyperemia that diminishes over time”. Moreover, the “effect on the IOP of dogs” value with Beagle dogs [3] is listed as “effective for reducing IOP of the dogs”.
